{
  "source": "patent US8927717B1",
  "about": "“Thiochromeno[2,3-c]quinolin-12-one derivatives, preparation method and application thereof” (National Defense Medical Center, priority 2014, dated 2015)",
  "format_in_all_cases": "cell-based",
  "key": {"[1]": {"tested_on": "LOX IMVI"}, "[2]": {"tested_on": "M14"}, "[3]": {"tested_on": "OVCAR-8"}, "[4]": {"tested_on": "NCI-H522"}, "[5]": {"tested_on": "MDA-MB-435"}, "[6]": {"tested_on": "DU-145"}, "[7]": {"tested_on": "MALME-3M", "conditions": "Melanoma; 10^−5 molar; 48 hours; SRB"}, "[8]": {"tested_on": "SW-620"}, "[9]": {"tested_on": "CCRF-CEM"}, "[10]": {"tested_on": "60 cancer cell lines", "assay": "NCI 60-cell screen, SRB, whole panel (mean, delta, range)"}, "[11]": {"tested_on": "A498"}, "[12]": {"tested_on": "T-47D", "conditions": "Breast cancer; 10^−5 molar; 48 hours; SRB"}, "[13]": {"tested_on": "SNB-19"}, "[14]": {"tested_on": "A549/ATCC"}, "[15]": {"tested_on": "HL-60(TB)"}, "[16]": {"tested_on": "HS 578T"}, "[17]": {"tested_on": "UO-31"}, "[18]": {"tested_on": "MOLT-4"}, "[19]": {"tested_on": "RPMI-8226"}, "[20]": {"tested_on": "TK-10", "conditions": "Renal cancer; 10^−5 molar; 48 hours; SRB"}, "[21]": {"conditions": "Homo sapiens, LOX IMVI, five dose"}, "[22]": {"conditions": "Melanoma, 10^−5 molar, 48 hours, SRB"}, "[23]": {"conditions": "Homo sapiens, NCI-H522, five dose"}, "[24]": {"conditions": "Non-small cell lung cancer, 10^−5 molar, 48 hours, SRB"}, "[25]": {"conditions": "Homo sapiens, SW-620, five dose"}, "[26]": {"conditions": "Leukemia, 10^−5 molar, 48 hours, SRB"}, "[27]": {"conditions": "Renal cancer, 10^−5 molar, 48 hours, SRB"}, "[28]": {"conditions": "Homo sapiens, SNB-19, five dose"}, "[29]": {"conditions": "Homo sapiens, A549/ATCC, five dose"}},
  "data": [
    {"smiles": "CN(C)CCNc1nc2ccccc2c2c(=O)c3cc(Cl)ccc3sc12", "note": "[Compound N7, 10-Chloro-6-((2-(dimethylamino)ethyl)amino)-12H-thiochromeno[2,3-c]quinolin-12-one]", "values": [
      {"measurement": "GI50", "setting": "[1]; [21]", "result": 1.68, "unit": "µM"},
      {"measurement": "LC50", "setting": "[1]; [21]", "result": 6.24, "unit": "µM"},
      {"measurement": "TGI", "setting": "[1]; LOX IMVI, five dose", "result": 3.24, "unit": "µM"},
      {"measurement": "Growth percent LOX IMVI", "setting": "[1]; [22]", "result": "−84.12", "unit": "%"},
      {"measurement": "GI50", "setting": "[2]; Homo sapiens, M14, five dose", "result": 1.85, "unit": "µM"},
      {"measurement": "LC50", "setting": "[2]; Homo sapiens, M14, five dose", "result": 6.4, "unit": "µM"},
      {"measurement": "TGI", "setting": "[2]; M14, five dose", "result": 3.44, "unit": "µM"},
      {"measurement": "Growth percent M14", "setting": "[2]; [22]", "result": "−92.77", "unit": "%"},
      {"measurement": "GI50", "setting": "[3]; Homo sapiens, OVCAR-8, five dose", "result": 1.64, "unit": "µM"},
      {"measurement": "CC50", "setting": "[3]; Homo sapiens, OVCAR-8, five dose, read-out: LC50 (the source's name)", "result": 6.06, "unit": "µM"},
      {"measurement": "TGI", "setting": "[3]; OVCAR-8, five dose", "result": 3.15, "unit": "µM"},
      {"measurement": "Growth percent OVCAR-8", "setting": "[3]; Ovarian cancer, 10^−5 molar, 48 hours, SRB", "result": 1.22, "unit": "%"},
      {"measurement": "GI50", "setting": "[4]; [23]", "result": 1.59, "unit": "µM"},
      {"measurement": "LC50 (concentration causing 50% net cell kill)", "setting": "[4]; [23]", "result": 5.9, "unit": "µM"},
      {"measurement": "TGI", "setting": "[4]; NCI-H522, five dose", "result": 3.07, "unit": "µM"},
      {"measurement": "Growth percent NCI-H522", "setting": "[4]; [24]", "result": "−8.99", "unit": "%"},
      {"measurement": "GI50", "setting": "[5]; Homo sapiens, MDA-MB-435, five dose", "result": 1.71, "unit": "µM"},
      {"measurement": "CC50", "setting": "[5]; Homo sapiens, MDA-MB-435, five dose, read-out: LC50 (the source's name)", "result": 6.05, "unit": "µM"},
      {"measurement": "TGI", "setting": "[5]; MDA-MB-435, five dose", "result": 3.22, "unit": "µM"},
      {"measurement": "Growth percent MDA-MB-435", "setting": "[5]; [22]", "result": "−64.64", "unit": "%"},
      {"measurement": "TGI", "setting": "[6]; DU-145, five dose", "result": 3.34, "unit": "µM"},
      {"measurement": "GI50", "setting": "[6]; Homo sapiens, DU-145, five dose", "result": 1.87, "unit": "µM"},
      {"measurement": "CC50", "setting": "[6]; Homo sapiens, DU-145, five dose, read-out: LC50 (the source's name)", "result": 5.99, "unit": "µM"},
      {"measurement": "Growth percent DU-145", "setting": "[6]; Prostate cancer, 10^−5 molar, 48 hours, SRB", "result": "−80.85", "unit": "%"},
      {"measurement": "Growth percent MALME-3M", "setting": "[7]", "result": "−4.32", "unit": "%"},
      {"measurement": "Growth percent SW-620", "setting": "[8]; Colon cancer, 10^−5 molar, 48 hours, SRB", "result": "−67.82", "unit": "%"},
      {"measurement": "GI50", "setting": "[8]; [25]", "result": 1.71, "unit": "µM"},
      {"measurement": "LC50", "setting": "[8]; [25]", "result": 6.36, "unit": "µM"},
      {"measurement": "TGI", "setting": "[8]; SW-620, five dose", "result": 3.29, "unit": "µM"},
      {"measurement": "TGI", "setting": "[9]; CCRF-CEM, five dose", "result": 3.41, "unit": "µM"},
      {"measurement": "GI50", "setting": "[9]; Homo sapiens, CCRF-CEM, five dose", "result": 1.63, "unit": "µM"},
      {"measurement": "CC50", "setting": "[9]; Homo sapiens, CCRF-CEM, five dose, read-out: LC50 (the source's name)", "result": 7.15, "unit": "µM"},
      {"measurement": "Growth percent CCRF-CEM", "setting": "[9]; [26]", "result": "−53.54", "unit": "%"},
      {"measurement": "GI50", "setting": "[10]; 60 cell, mean over panel, five dose", "result": 1.66, "unit": "µM"},
      {"measurement": "CC50", "setting": "[10]; 60 cell, mean over panel, five dose, read-out: LC50, Mean", "result": 6.92, "unit": "µM"},
      {"measurement": "Growth percent, Delta", "setting": "[10]; delta over the cell panel, 10^−5 molar, 48 hours, SRB", "result": 85.53, "unit": "%"},
      {"measurement": "TGI, Mean", "setting": "[10]; mean over panel, five dose", "result": 3.39, "unit": "µM"},
      {"measurement": "Growth percent, Mean", "setting": "[10]; mean over the cell panel, 10^−5 molar, 48 hours, SRB", "result": "−11.06", "unit": "%"},
      {"measurement": "Growth percent, Range", "setting": "[10]; range over the cell panel, 10^−5 molar, 48 hours, SRB", "result": 187.88, "unit": "%"},
      {"measurement": "TGI", "setting": "[11]; A498, five dose", "result": 9.44, "unit": "µM"},
      {"measurement": "GI50", "setting": "[11]; Homo sapiens, A498, five dose", "result": 2.7, "unit": "µM"},
      {"measurement": "CC50", "setting": "[11]; Homo sapiens, A498, five dose, read-out: LC50 (the source's name)", "result": 3.52, "unit": "µM"},
      {"measurement": "Growth percent A498", "setting": "[11]; [27]", "result": 43.17, "unit": "%"},
      {"measurement": "Growth percent T-47D", "setting": "[12]", "result": 26.06, "unit": "%"},
      {"measurement": "Growth percent SNB-19", "setting": "[13]; CNS cancer, 10^−5 molar, 48 hours, SRB", "result": 55.44, "unit": "%"},
      {"measurement": "GI50", "setting": "[13]; [28]", "result": 1.54, "unit": "µM"},
      {"measurement": "LC50 (concentration killing 50% of cells)", "setting": "[13]; [28]", "result": 6.1, "unit": "µM"},
      {"measurement": "TGI", "setting": "[13]; SNB-19, five dose", "result": 3.07, "unit": "µM"},
      {"measurement": "TGI", "setting": "[14]; A549/ATCC, five dose", "result": 3.17, "unit": "µM"},
      {"measurement": "GI50", "setting": "[14]; [29]", "result": 1.66, "unit": "µM"},
      {"measurement": "LC50", "setting": "[14]; [29]", "result": 6.06, "unit": "µM"},
      {"measurement": "Growth percent A549/ATCC", "setting": "[14]; [24]", "result": 23.38, "unit": "%"},
      {"measurement": "TGI", "setting": "[15]; HL-60(TB), five dose", "result": 3.49, "unit": "µM"},
      {"measurement": "GI50", "setting": "[15]; Homo sapiens, HL-60(TB), five dose", "result": 1.76, "unit": "µM"},
      {"measurement": "CC50", "setting": "[15]; Homo sapiens, HL-60(TB), five dose, read-out: LC50 (the source's name)", "result": 6.95, "unit": "µM"},
      {"measurement": "Growth percent HL-60(TB)", "setting": "[15]; [26]", "result": "−47.40", "unit": "%"},
      {"measurement": "Growth percent HS 578T", "setting": "[16]; Breast cancer, 10^−5 molar, 48 hours, SRB", "result": 34.31, "unit": "%"},
      {"measurement": "TGI", "setting": "[16]; HS 578T, five dose", "result": 4.02, "unit": "µM"},
      {"measurement": "GI50", "setting": "[16]; Homo sapiens, HS 578T, five dose", "result": 1.74, "unit": "µM"},
      {"measurement": "CC50", "setting": "[16]; Homo sapiens, HS 578T, five dose, read-out: LC50 (the source's name)", "result": 9.27, "unit": "µM"},
      {"measurement": "GI50", "setting": "[17]; Homo sapiens, UO-31, five dose", "result": 1.19, "unit": "µM"},
      {"measurement": "CC50", "setting": "[17]; Homo sapiens, UO-31, five dose, read-out: LC50 (the source's name)", "result": 5.22, "unit": "µM"},
      {"measurement": "Growth percent UO-31", "setting": "[17]; [27]", "result": 21.83, "unit": "%"},
      {"measurement": "TGI", "setting": "[17]; UO-31, five dose", "result": 2.50, "unit": "µM"},
      {"measurement": "GI50", "setting": "[18]; Homo sapiens, MOLT-4, five dose", "result": 1.71, "unit": "µM"},
      {"measurement": "CC50", "setting": "[18]; Homo sapiens, MOLT-4, five dose, read-out: LC50 (the source's name)", "result": 6.74, "unit": "µM"},
      {"measurement": "Growth percent MOLT-4", "setting": "[18]; [26]", "result": "−56.34", "unit": "%"},
      {"measurement": "TGI", "setting": "[18]; MOLT-4, five dose", "result": 3.40, "unit": "µM"},
      {"measurement": "GI50", "setting": "[19]; Homo sapiens, RPMI-8226, five dose", "result": 1.76, "unit": "µM"},
      {"measurement": "CC50", "setting": "[19]; Homo sapiens, RPMI-8226, five dose, read-out: LC50 (the source's name)", "result": 7.69, "unit": "µM"},
      {"measurement": "Growth percent RPMI-8226", "setting": "[19]; [26]", "result": "−37.68", "unit": "%"},
      {"measurement": "TGI", "setting": "[19]; RPMI-8226, five dose", "result": 3.68, "unit": "µM"},
      {"measurement": "Growth percent TK-10", "setting": "[20]", "result": "−89.05", "unit": "%"}
    ]}
  ]
}
